Measured values reported in PubChem BioAssay (NCI).
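At the GI50, growth is halved. TGI marks complete inhibition of growth.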

Assays:
Test in all cases: growth of human tumour cells (NCI), 384-well format
[1] = system: 786-0 renal
[2] = system: A498 renal
[3] = system: A549 NSCLC
[4] = system: BT-549 breast
[5] = system: CAKI-1 renal
[6] = system: COLO 205 colon
[7] = system: DU-145 prostate
[8] = system: EKVX NSCLC
[9] = system: HCC-2998 colon
[10] = system: HCT-116 colon
[11] = system: HCT-15 colon
[12] = system: HOP-62 NSCLC
[13] = system: HOP-92 NSCLC
[14] = system: HT29 colon
[15] = system: IGROV1 ovarian
[16] = system: K-562 leukemia
[17] = system: KM12 colon
[18] = system: LOX IMVI melanoma
[19] = system: M14 melanoma
[20] = system: MALME-3M melanoma
[21] = system: MCF7 breast
[22] = system: MDA-MB-231 breast
[23] = system: MDA-MB-435 melanoma
[24] = system: MOLT-4 leukemia
[25] = system: NCI-H322M lung
[26] = system: NCI-H522 lung
[27] = system: NCI/ADR-RES ovarian
[28] = system: OVCAR-3 ovarian
[29] = system: OVCAR-8 ovarian
[30] = system: RPMI-8226 leukemia
[31] = system: SF-268 CNS
[32] = system: SF-295 CNS
[33] = system: SF-539 CNS
[34] = system: SK-MEL-2 melanoma
[35] = system: SK-MEL-28 melanoma
[36] = system: SK-MEL-5 melanoma
[37] = system: SK-OV-3 ovarian
[38] = system: SN12C renal
[39] = system: SNB-19 CNS
[40] = system: SNB-75 CNS
[41] = system: SR leukemia
[42] = system: T-47D breast
[43] = system: TK-10 renal
[44] = system: U251 glioblastoma
[45] = system: UACC-257 melanoma
[46] = system: UACC-62 melanoma
[47] = system: UO-31 renal

Compound: O=C(Nc1cccc(NS(=O)(=O)c2ccc(F)cc2)c1)c1ccc(-c2ccccc2)cc1
- GI50 [1]: 2.95 µM
- TGI [1]: 10.6 µM
- GI50 [2]: 4.4 µM
- TGI [2]: 16.8 µM
- GI50 [3]: 4.07 µM
- TGI [3]: > 100 µM
- GI50 [4]: 2.89 µM
- TGI [4]: 8.64 µM
- GI50 [5]: 5.85 µM
- TGI [5]: 26.6 µM
- GI50 [6]: 4.33 µM
- TGI [6]: 17.2 µM
- GI50 [7]: 4.44 µM
- TGI [7]: 26.5 µM
- GI50 [8]: 3.09 µM
- TGI [8]: 12.3 µM
- GI50 [9]: 6.02 µM
- TGI [9]: 21.2 µM
- GI50 [10]: 3.54 µM
- TGI [10]: 12.6 µM
- GI50 [11]: 4.05 µM
- TGI [11]: 19.5 µM
- GI50 [12]: 3.85 µM
- TGI [12]: 11.6 µM
- GI50 [13]: 2.94 µM
- TGI [13]: 8.32 µM
- GI50 [14]: 4.49 µM
- TGI [14]: 21.5 µM
- GI50 [15]: 10.4 µM
- TGI [15]: 37.1 µM
- GI50 [16]: 2.6 µM
- TGI [16]: 11.2 µM
- GI50 [17]: 3.62 µM
- TGI [17]: 13.2 µM
- GI50 [18]: 3.31 µM
- TGI [18]: 11.4 µM
- GI50 [19]: 6.38 µM
- TGI [19]: 19.5 µM
- GI50 [20]: 4.23 µM
- TGI [20]: 17.4 µM
- GI50 [21]: 4.23 µM
- TGI [21]: 14.4 µM
- GI50 [22]: 3.72 µM
- TGI [22]: 18.3 µM
- GI50 [23]: 4.59 µM
- TGI [23]: 17.1 µM
- GI50 [24]: 1.81 µM
- TGI [24]: 3.64 µM
- GI50 [25]: 3.9 µM
- TGI [25]: 19.7 µM
- GI50 [26]: 3.6 µM
- TGI [26]: 15.2 µM
- GI50 [27]: 2.55 µM
- TGI [27]: 9.38 µM
- GI50 [28]: 7.05 µM
- TGI [28]: 20 µM
- GI50 [29]: 3.57 µM
- TGI [29]: 13.3 µM
- GI50 [30]: 1.47 µM
- TGI [30]: 3.75 µM
- GI50 [31]: 3.93 µM
- TGI [31]: 17.2 µM
- GI50 [32]: 2.79 µM
- TGI [32]: 10.1 µM
- GI50 [33]: 3.17 µM
- TGI [33]: 11.1 µM
- GI50 [34]: 12.9 µM
- TGI [34]: 26.3 µM
- GI50 [35]: 17.1 µM
- TGI [35]: 38.5 µM
- GI50 [36]: 2.56 µM
- TGI [36]: 7.94 µM
- GI50 [37]: 5.43 µM
- TGI [37]: 28.3 µM
- GI50 [38]: 3.45 µM
- TGI [38]: 11.8 µM
- GI50 [39]: 4.04 µM
- TGI [39]: 21.7 µM
- GI50 [40]: 5.65 µM
- TGI [40]: 25.1 µM
- GI50 [41]: 1.76 µM
- TGI [41]: 3.31 µM
- GI50 [42]: 2.03 µM
- TGI [42]: 9.91 µM
- GI50 [43]: 4.17 µM
- TGI [43]: 19.2 µM
- GI50 [44]: 2.35 µM
- TGI [44]: 5.72 µM
- GI50 [45]: 4.02 µM
- TGI [45]: 16.7 µM
- GI50 [46]: 3.38 µM
- TGI [46]: 15 µM
- GI50 [47]: 3.59 µM
- TGI [47]: 13.5 µM
